Laboratory results as given in ChEMBL document CHEMBL1140338, “Range and sensitivity as descriptors of molecular property spaces in dynamic QSAR analyses” (J Med Chem, 2005).

How the values were obtained:
[1] = Binding affinity for alpha 1d adrenoceptor
[2] = Binding affinity for alpha 1b adrenoceptor
[3] = Binding affinity for alpha 1a adrenoceptor

| Structure (SMILES) | pK [1] | pK [2] | pK [3] |
| --- | --- | --- | --- |
| COc1cccc2c1CC[C@H]1CN(CCn3c(=O)[nH]c4c(sc5cccnc54)c3=O)C[C@@H]21 | 9.01 | 8.16 | 9.66 |
| C=Cc1sc2ccc(Cl)c3c2c1CN(C)CC3 | 8.28 | 7.2 | 7.36 |
| COc1cccc(OC)c1OCCNCC1COc2ccccc2O1 (stereo unspecified) | 9.6 | – | 9.8 |
| Cc1ccc(N(CC2=NCCN2)c2cccc(O)c2)cc1 | 8.1 | 8.1 | 8.8 |
| COc1cc2nc(N3CCN(C(=O)c4ccco4)[C@H]4CCCC[C@H]43)nc(N)c2cc1OC | 8.49 | 9.89 | 7.92 |
| C[C@H](CN1CCN(c2cc(F)c(F)cc2F)CC1)N1C(=O)CC2(CCCC2)CC1=O | 8.8 | 6.72 | 6.53 |
| COC(=O)[C@H]1[C@H]2C[C@H]3c4[nH]c5ccccc5c4CCN3C[C@@H]2CC[C@@H]1O | 6.6 | 6.29 | 6.85 |
| CCCC(=O)N1CCCN(c2nc(N)c3cc(OC)c(OC)cc3n2)CC1 | 9 | 9 | 9.3 |
| COc1ccccc1N1CCN(CCCCN2C(=O)c3ccccc3C2=O)CC1 | 9.1 | 7.82 | 8.7 |
| COc1cc2nc(N(C)CCCNC(=O)C3CCCO3)nc(N)c2cc1OC (stereo unspecified) | 8.5 | 8 | 8 |
| COc1ccccc1N1CCN(CCN2C(=O)CC3(CCCC3)CC2=O)CC1 | 8.2 | 6.2 | 6.6 |
| COc1cc2nc(N3CCN(C(=O)COc4c(OC)cccc4C(C)C)CC3)nc(N)c2cc1OC | 8.59 | 9.52 | 8.72 |
| COc1cc2nc(N3CCN(C(=O)C4CCCO4)CC3)nc(N)c2cc1OC (stereo unspecified) | 8.6 | – | 8.2 |
| O=C(NC1CCN(CCc2c[nH]c3ccccc23)CC1)c1ccccc1 | 6.8 | 7.4 | 8.4 |
| COc1ccccc1N1CCN(CCCNC(=O)c2cccc3c(=O)c(C)c(-c4ccccc4)oc23)CC1 | 8.6 | – | 9 |
| COc1cc2c(cc1OC)CN(c1cc(N)c3cc(OC)c(OC)cc3n1)CC2 | 10.4 | 10.1 | 10.4 |
| COc1cc2nc(N3CCN(C(=O)C4COc5ccccc5O4)CC3)nc(N)c2cc1OC (stereo unspecified) | 8.4 | 9 | – |
| COC(=O)C1=C(C)NC(C)=C(C(=O)NCCCN2CCC(c3ccccc3)(c3ccccc3)CC2)C1c1ccc([N+](=O)[O-])cc1 (stereo unspecified) | 7.18 | 7.89 | 9.64 |
| COc1cccc(OC)c1OCCNCC1CSc2ccccc2O1 (stereo unspecified) | 9.4 | 8.4 | 9.7 |
| Cc1c[nH]c(=O)n(CCCN2CCN(c3ccc(F)cc3OCC(F)(F)F)CC2)c1=O | 7 | 7.1 | 9 |
| CCC1=C(C(N)=O)[C@H](c2ccc([N+](=O)[O-])cc2)C(C(=O)NCCCN2CCC(c3ccccc3)(c3ccccc3)CC2)=C(COCCN)N1 | 6.4 | 6.49 | 9.19 |
| COc1ccccc1N1CCN(CCN(C(=O)C2CCCCC2)c2ccccn2)CC1 | 7.2 | 6.73 | 7.24 |
| O=C(CCCN1CCC2(CC1)C(=O)NCN2c1ccccc1)c1ccc(F)cc1 | 7.89 | 9.3 | 8.1 |
| COc1ccccc1N1CCN(CCCNc2c(C)c(=O)n(C)c(=O)n2C)CC1 | 8 | 7.4 | 9.2 |
| COC(=O)C1=C(C)NC(C)=C(C(=O)OCCCN2CCC(c3ccccc3)(c3ccccc3)CC2)[C@H]1c1cccc([N+](=O)[O-])c1 | 7 | 7.26 | 9.82 |
| COc1c(C)c(C)c(O)c(C)c1CN(C)CCOc1cc(C)c(O)cc1C(C)C | 8.92 | 8.92 | 9.4 |
| COc1cc2c(cc1O)C1Cc3ccc(OC)c(O)c3CN1CC2 (stereo unspecified) | 7.6 | 6.44 | 6.21 |
| CC1=C(C(N)=O)[C@H](c2ccc([N+](=O)[O-])cc2)C(C(=O)NCCCCN2CCC(c3ccccc3)(c3ccccc3)CC2)=C(C)N1 | 6.4 | 6.48 | 8.72 |
| C[C@H](Cc1cc2c(c(C(N)=O)c1)N(CCCO)CC2)NCCOc1ccccc1OCC(F)(F)F | 8.7 | 7.7 | 10.4 |
| CC(C)(Cc1c[nH]c2ccc(Cl)cc12)NCCOc1ccccc1OCC1CC1 | 7.8 | 7.8 | 9.22 |
